{"source": "patent US20200038383A1", "about": "“IMMEDIATE-RELEASE ABUSE DETERRENT CO[…] MEDICAMENTS FOR TREATING PAIN, ADD, ADHD AND OTHER SYNDROMES OR DISORDERS” (KEMPHARM, INC., priority 2016, published 2020)", "key": {"[1]": {"assay": "Water solubility / feasibility of intravenous administration"}, "Hydrolysis in 5% NaHCO3": {"assay": "Hydrolysis in 5% NaHCO3", "type": "physicochemical", "conditions": "one hour"}, "[2]": {"assay": "Intranasal PK of hydrocodone conjugates in rats", "conditions": "equivalent to 2 mg/kg hydrocodone freebase"}, "[3]": {"assay": "Hydrolysis to hydrocodone in 1 N HCl", "conditions": "1 hour"}, "[4]": {"assay": "Tamper resistance study (extraction methods, HPLC)", "type": "physicochemical", "text": "Certain prodrug conjugates of the present technology were exposed to various commonly applied “extraction methods” to test for hydrolysis and/or decomposition of the prodrug."}, "[5]": {"assay": "Oral dose escalation study in rats", "conditions": "oral solutions, escalating dosages"}, "[6]": {"assay": "Chemical stability (hydrolysis) of hydrocodone conjugates in water", "type": "physicochemical", "conditions": "one hour", "experimental": "Exemplary conjugates of hydrocodone of the present technology and control test conjugates not of the present technology were tested for chemical stability under conditions similar to what a potential drug abuser may use to “extract” the active portion of the molecule, for example dissolved in water, hydrochloric acid or sodium bicarbonate either at ambient temperature or 100° C."}, "[7]": {"assay": "Oral PK of hydrocodone conjugates in rats (plasma hydrocodone, hydromorphone, intact conjugate by LC-MS/MS)"}, "Oral PK in dogs": {"assay": "Oral PK in dogs", "conditions": "equivalent to 2 mg/kg freebase hydrocodone"}, "[8]": {"conditions": "ambient temperature (about 20° C.)"}, "[9]": {"conditions": "equivalent to 2 mg/kg freebase hydrocodone"}, "[10]": {"conditions": "equivalent to 2 mg/kg hydrocodone freebase"}}, "note": "Where no end group is shown, it is not given here."}
{"compound": "COc1ccc2c3c1OC1C(OC(=O)COCC(=O)O)=CC[C@H]4[C@@H](C2)N(C)CC[C@]314", "note": "(stereo partly drawn) [Diglycolate-HC, reference compound]", "values": [{"measurement": "solubility in water (intravenous administration at oral equivalent doses)", "setting": "[1]", "value": "water soluble"}]}
{"compound": "Tyr-Tyr-Phe-Phe-Ile-Hydrocodone (YYFFI-hydrocodone) [YYFFI-HC]", "values": [{"measurement": "%-release in 5% NaHCO3", "setting": "Hydrolysis in 5% NaHCO3; 100° C. oil bath", "value": 70, "unit": "%"}, {"measurement": "%-release in 5% NaHCO3", "setting": "Hydrolysis in 5% NaHCO3; ambient (~20° C.)", "value": 0, "unit": "%"}]}
{"compound": "COc1ccc2c3c1OC1C(OC(=O)CCCCC(=O)O)=CC[C@H]4[C@@H](C2)N(C)CC[C@]314", "note": "(stereo partly drawn) [Adipate-HC]", "values": [{"measurement": "%-release in 5% NaHCO3", "setting": "Hydrolysis in 5% NaHCO3; 100° C. oil bath", "value": 100, "unit": "%"}, {"measurement": "%-release in 5% NaHCO3", "setting": "Hydrolysis in 5% NaHCO3; ambient (~20° C.)", "value": 3, "unit": "%"}, {"measurement": "AUC for hydromorphone released from Adipate-HC, higher than Bz-HC (sentence on hydrocodone plasma concentrations, FIG. 3)", "setting": "[2]", "value": "approximately 280%"}, {"measurement": "Cmax for hydromorphone released from Adipate-HC, higher than Bz-HC (sentence on hydrocodone plasma concentrations, FIG. 3)", "setting": "[2]", "value": "~60", "unit": "%"}, {"measurement": "hydromorphone AUC, higher than Bz-HC (FIG. 4)", "setting": "[2]", "value": "approximately 750%"}, {"measurement": "hydromorphone Cmax, higher than Bz-HC (FIG. 4)", "setting": "[2]", "value": "~660", "unit": "%"}, {"measurement": "solubility in water (intravenous administration at oral equivalent doses)", "setting": "[1]", "value": "water soluble"}, {"measurement": "%-release in 1 N HCl", "setting": "[3]; 100° C. oil bath", "value": 100, "unit": "%"}, {"measurement": "%-release in 1 N HCl", "setting": "[3]; ambient (~20° C.)", "value": 13, "unit": "%"}]}
{"compound": "CC(=O)Oc1ccccc1C(=O)OC1=CCC2C3Cc4ccc(OC(=O)c5ccccc5OC(C)=O)c5c4C2(CCN3C)C1O5", "note": "(stereo not drawn) [3,6-di-aspirin-HM, 3,6,-di-aspirin-hydromorphone]", "values": [{"measurement": "stability under commonly applied extraction methods", "setting": "[4]", "value": "chemically stable"}, {"measurement": "Release of hydromorphone (as %-AUC by HPLC)", "setting": "[4]; 1 N HCl, ambient temperature, 30 min.", "value": 0, "unit": "%"}, {"measurement": "Release of hydromorphone (as %-AUC by HPLC)", "setting": "[4]; 1 N HCl, ambient temperature, 60 min.", "value": 0, "unit": "%"}, {"measurement": "Release of hydromorphone (as %-AUC by HPLC)", "setting": "[4]; 1 N NaOH, ambient temperature, 30 min.", "value": 1, "unit": "%"}, {"measurement": "Release of hydromorphone (as %-AUC by HPLC)", "setting": "[4]; 1 N NaOH, ambient temperature, 60 min.", "value": 1, "unit": "%"}, {"measurement": "Release of hydromorphone (as %-AUC by HPLC)", "setting": "[4]; 4 N NaOH, ambient temperature, 30 min.", "value": 1, "unit": "%"}, {"measurement": "Release of hydromorphone (as %-AUC by HPLC)", "setting": "[4]; 4 N NaOH, ambient temperature, 60 min.", "value": 6, "unit": "%"}, {"measurement": "Release of hydromorphone (as %-AUC by HPLC)", "setting": "[4]; 5% Acetic acid, ambient temperature, 30 min.", "value": 0, "unit": "%"}, {"measurement": "Release of hydromorphone (as %-AUC by HPLC)", "setting": "[4]; 5% Acetic acid, ambient temperature, 60 min.", "value": 0, "unit": "%"}, {"measurement": "Release of hydromorphone (as %-AUC by HPLC)", "setting": "[4]; Glacial acetic acid, ambient temperature, 30 min.", "value": 0, "unit": "%"}, {"measurement": "Release of hydromorphone (as %-AUC by HPLC)", "setting": "[4]; Glacial acetic acid, ambient temperature, 60 min.", "value": 0, "unit": "%"}, {"measurement": "Release of hydromorphone (as %-AUC by HPLC)", "setting": "[4]; Sat. NaHCO3, ambient temperature, 30 min.", "value": 0, "unit": "%"}, {"measurement": "Release of hydromorphone (as %-AUC by HPLC)", "setting": "[4]; Sat. NaHCO3, ambient temperature, 60 min.", "value": 0, "unit": "%"}, {"measurement": "Release of hydromorphone (as %-AUC by HPLC)", "setting": "[4]; Water, ambient temperature, 30 min.", "value": 0, "unit": "%"}, {"measurement": "Release of hydromorphone (as %-AUC by HPLC)", "setting": "[4]; Water, ambient temperature, 60 min.", "value": 0, "unit": "%"}, {"measurement": "exposure (AUC) to hydromorphone at doses above the therapeutic level", "setting": "[5]", "value": "reached a plateau"}]}
{"compound": "COc1ccc2c3c1OC1C(OC(=O)c4ccc5c(c4)OCO5)=CC[C@H]4[C@@H](C2)N(C)CC[C@]314", "note": "(stereo partly drawn) [Piperonylate-HC]", "values": [{"measurement": "solubility in water (intravenous administration at oral equivalent doses)", "setting": "[1]", "value": "hydrophobic"}]}
{"compound": "COc1ccc(C(=O)OC2=CC[C@H]3[C@H]4Cc5ccc(OC)c6c5[C@@]3(CCN4C)C2O6)cc1", "note": "(stereo partly drawn) [Compound 4-MeO-Bz-HC]", "values": [{"measurement": "amount of conjugate hydrolyzed in water", "setting": "[6]; 100° C. oil bath", "value": 0, "unit": "%"}, {"measurement": "amount of conjugate hydrolyzed in water", "setting": "[6]; [8]", "value": 0, "unit": "%"}, {"measurement": "solubility in water (intravenous administration at oral equivalent doses)", "setting": "[1]", "value": "hydrophobic"}]}
{"compound": "COc1ccc(C(=O)OC2=CC[C@H]3[C@H]4Cc5ccc(OC)c6c5[C@@]3(CCN4C)C2O6)cc1O", "note": "(stereo partly drawn) [3-OH-4-MeO-Bz-HC]", "values": [{"measurement": "%-release in 5% NaHCO3", "setting": "Hydrolysis in 5% NaHCO3; 100° C. oil bath", "value": 36, "unit": "%"}, {"measurement": "%-release in 5% NaHCO3", "setting": "Hydrolysis in 5% NaHCO3; ambient (~20° C.)", "value": 0, "unit": "%"}, {"measurement": "solubility in water (intravenous administration at oral equivalent doses)", "setting": "[1]", "value": "hydrophobic"}, {"measurement": "%-release in 1 N HCl", "setting": "[3]; 100° C. oil bath", "value": 35, "unit": "%"}, {"measurement": "%-release in 1 N HCl", "setting": "[3]; ambient (~20° C.)", "value": 0, "unit": "%"}]}
{"compound": "COc1ccc2c3c1OC1C(OC(=O)c4ccccc4)=CCC4C(C2)N(C)CCC314", "note": "(stereo not drawn) [Bz-HC, benzhydrocodone]", "values": [{"measurement": "maximum plasma concentrations of hydromorphone versus dose", "setting": "[7]; doses above 2.00 mg/kg", "value": "did not significantly change"}, {"measurement": "exposures (AUC) to hydrocodone and hydromorphone versus dose", "setting": "[7]; doses between 0.25 and 4.00 mg/kg", "value": "fairly linear"}, {"measurement": "AUC for intact Bz-HC as % of the AUC for hydrocodone", "setting": "[7]; [9]", "value": "approximately 10%"}, {"measurement": "AUC for intact Bz-HC as % of the AUC for hydromorphone", "setting": "[7]; [9]", "value": "~3", "unit": "%"}, {"measurement": "hydrocodone Cmax compared with Hydrocodone.BT", "setting": "[7]; [10]", "value": "approximately equal"}, {"measurement": "AUC for intact Bz-HC as % of the AUC for hydrocodone", "setting": "Oral PK in dogs", "value": "approximately 10%"}, {"measurement": "solubility in water (intravenous administration at oral equivalent doses)", "setting": "[1]", "value": "hydrophobic"}, {"measurement": "water solubility (or solubility in PBS)", "setting": "[1]; 0.30 mg/kg close to the maximum intravenous dose in rats", "value": "poor"}]}
{"compound": "2-aminobenzoate-hydrocodone [Compound 2-Abz-HC]", "values": [{"measurement": "hydrocodone AUC, lower than Hydrocodone.BT", "setting": "[7]; [10]", "value": "approximately 35%"}, {"measurement": "hydrocodone Cmax, lower than Hydrocodone.BT", "setting": "[7]; [10]", "value": "~60", "unit": "%"}, {"measurement": "hydrocodone Tmax compared with Hydrocodone.BT", "setting": "[7]; [10]", "value": "approximately four times longer"}, {"measurement": "hydromorphone AUC, lower than Hydrocodone.BT", "setting": "[7]; [10]", "value": "approximately 25%"}, {"measurement": "hydromorphone Cmax, lower than Hydrocodone.BT", "setting": "[7]; [10]", "value": "~50", "unit": "%"}, {"measurement": "amount of conjugate hydrolyzed in water", "setting": "[6]; 100° C. oil bath", "value": 0, "unit": "%"}, {"measurement": "amount of conjugate hydrolyzed in water", "setting": "[6]; [8]", "value": 0, "unit": "%"}, {"measurement": "%-release in 1 N HCl", "setting": "[3]; 100° C. oil bath", "value": 16, "unit": "%"}, {"measurement": "%-release in 1 N HCl", "setting": "[3]; ambient (~20° C.)", "value": 0, "unit": "%"}]}
